The supplement of paper PMC10307832

Assays:
Assay in all cases: relative viability (nuclei count vs DMSO), 5 days (fraction); higher = more cells survive
[1] = compound: Cc1ccc(C(=O)Nc2ccc(CN3CCN(C)CC3)c(C(F)(F)F)c2)cc1C#Cc1cnc2cccnn12 [Ponatinib] + CC(=O)Nc1cccc(-n2c(=O)n(C3CC3)c(=O)c3c(Nc4ccc(I)cc4F)n(C)c(=O)c(C)c32)c1 [Trametinib] (partner 0.02 µM)
How it was run: (§1)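 A single step with final 0.05% Triton X-100, 1% formaldehyde and 1 ug/ml Hoechst fixed the cells and stained nuclei 5 days after treatment. Lung cancer cell lines in 1536-well plates had been treated by pin tool the day after seeding with one drug alone or a fixed anchor-drug dose plus five library-drug doses (not always all listed) in √10 steps, and nuclei were counted on 4× images. Relative viability is the ratio of nuclei in treated wells to nuclei in vehicle wells, taken as the median of duplicate plates.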

[2] = compound: Cc1ccc(Nc2nccc(N(C)c3ccc4c(C)n(C)nc4c3)n2)cc1S(N)(=O)=O [Pazopanib] + O=C(CCCCCCC(=O)Nc1ccccc1)NO [Vorinostat] (partner 1 µM)
How it was run: as §1

[3] = compound: Cc1ccc(C(=O)Nc2ccc(CN3CCN(C)CC3)c(C(F)(F)F)c2)cc1C#Cc1cnc2cccnn12 [Ponatinib] + N=C(N)NC(=N)NCCc1ccccc1 [Phenformin] (partner 250 µM)
How it was run: as §1

[4] = compound: Cc1ccc(Nc2nccc(N(C)c3ccc4c(C)n(C)nc4c3)n2)cc1S(N)(=O)=O [Pazopanib] + CC(C)C[C@H](NC(=O)[C@H](Cc1ccccc1)NC(=O)c1cnccn1)B(O)O [Bortezomib] (partner 0.002 µM)
How it was run: as §1

| Cell Line | relative viability ([1]; first compound 0.002 µM) | relative viability ([1]; first compound 0.006325 µM) | relative viability ([1]; first compound 0.06325 µM) | relative viability ([1]; first compound 0.2 µM) | relative viability ([2]; first compound 0.01 µM) | relative viability ([2]; first compound 0.03162 µM) | relative viability ([2]; first compound 0.1 µM) | relative viability ([2]; first compound 0.3162 µM) | relative viability ([2]; first compound 1 µM) | relative viability ([3]; first compound 0.002 µM) | relative viability ([3]; first compound 0.006325 µM) | relative viability ([3]; first compound 0.06325 µM) | relative viability ([3]; first compound 0.2 µM) | relative viability ([4]; first compound 0.01 µM) | relative viability ([4]; first compound 0.03162 µM) | relative viability ([4]; first compound 0.1 µM) | relative viability ([4]; first compound 0.3162 µM) | relative viability ([4]; first compound 1 µM) |
| --- | --- | --- | --- | --- | --- | --- | --- | --- | --- | --- | --- | --- | --- | --- | --- | --- | --- | --- |
| 201T | 0.705 | 0.733 | 0.762 | 0.693 | 0.892 | 0.949 | 0.937 | 1.02 | 0.843 | 0.417 | 0.458 | 0.438 | 0.42 | 1.09 | 1.14 | 1.13 | 1.1 | 1.11 |
| A549 | – | – | – | – | – | – | – | – | – | 0.161 | 0.142 | 0.142 | 0.147 | – | – | – | – | – |
| A-427 | 0.79 | 0.732 | 0.719 | 0.531 | 0.862 | 0.941 | 0.825 | 0.903 | 0.971 | 0.34 | 0.398 | 0.244 | 0.225 | 0.934 | 1.02 | 0.929 | 0.922 | 1.02 |
| ABC-1 | – | – | – | – | 1.04 | 1.38 | 0.731 | 1.2 | 1.27 | 0.215 | 0.23 | 0.224 | 0.263 | 0.257 | 0.293 | 0.212 | 0.316 | 0.343 |
| BEN | 1.02 | 0.967 | 0.982 | 0.768 | 0.593 | 0.606 | 0.533 | 0.591 | 0.563 | 0.253 | 0.288 | 0.253 | 0.264 | 0.581 | 0.725 | 0.76 | 0.917 | 0.874 |
| CAL-12T | 0.315 | 0.311 | 0.332 | 0.239 | 0.742 | 0.649 | 0.744 | 0.754 | 0.834 | 0.529 | 0.541 | 0.668 | 0.601 | 1.05 | 1.01 | 0.843 | 1.04 | 1.35 |
| COR-L23 | 0.526 | 0.593 | 0.372 | 0.387 | 0.446 | 0.5 | 0.424 | 0.508 | 0.514 | 0.382 | 0.453 | 0.419 | 0.436 | 1.23 | 1.08 | 1.12 | 0.935 | 1.02 |
| COR-L 105 | 0.429 | 0.479 | 0.473 | 0.457 | 0.867 | 0.959 | 0.765 | 0.878 | 0.882 | 0.421 | 0.479 | 0.501 | 0.466 | 0.903 | 0.859 | 0.684 | 0.765 | 0.977 |
| Calu-6 | – | – | – | – | – | – | – | – | – | – | – | – | – | 0.928 | 1.06 | 1.04 | 0.932 | 0.957 |
| ChaGo-K-1 | 0.863 | 0.907 | 0.914 | 0.815 | 0.743 | 0.772 | 0.756 | 0.757 | 0.727 | 0.423 | 0.447 | 0.477 | 0.466 | 1.12 | 1.1 | 0.952 | 0.91 | 0.951 |
| EBC-1 | – | – | – | – | – | – | – | – | – | – | – | – | – | 0.524 | 0.602 | 0.712 | 0.519 | 0.65 |
| EKVX | 0.328 | 0.338 | 0.424 | 0.362 | 0.674 | 0.731 | 0.79 | 0.742 | 0.604 | 0.231 | 0.25 | 0.234 | 0.249 | 1.09 | 1.02 | 1 | 0.996 | 1.02 |
| EMC-BAC-2 | 0.875 | 0.897 | 0.91 | 0.718 | – | 0.512 | 0.232 | 0.472 | 0.432 | 0.495 | 0.449 | 0.508 | 0.487 | 0.889 | 1.11 | 1.1 | 1.04 | 1.22 |
| EPLC-272H | 0.271 | 0.309 | 0.345 | 0.22 | 0.389 | 0.432 | 0.682 | 0.652 | 0.535 | 0.305 | 0.336 | 0.292 | 0.316 | 0.765 | 1.07 | 0.843 | 1.12 | 1.1 |
| H3255 | 0.62 | 0.655 | 0.607 | 0.554 | 0.709 | 0.841 | 0.701 | 0.901 | 0.793 | 0.366 | 0.366 | 0.393 | 0.329 | 0.695 | 0.723 | 0.75 | 1.06 | 0.92 |
| HARA | 0.633 | 0.581 | 0.633 | 0.443 | 0.475 | 0.424 | 0.605 | 0.438 | 0.605 | 0.446 | 0.437 | 0.44 | 0.388 | 1.14 | 1.08 | 1.25 | 1.22 | 1.08 |
| HCC-15 | 0.348 | 0.381 | 0.446 | 0.338 | 0.878 | 0.906 | 0.867 | 0.893 | 0.791 | 0.445 | 0.494 | 0.547 | 0.467 | 1.05 | 1.18 | 1.04 | 0.976 | 1.05 |
| HCC-44 | 1 | 1.02 | 1.05 | 1.06 | 1.11 | 1.01 | 1.08 | 1.04 | 1.15 | 0.22 | 0.225 | 0.207 | 0.151 | 0.942 | 0.877 | 0.891 | 0.899 | 0.989 |
| HCC-78 | 0.684 | 0.673 | 0.808 | 0.638 | – | 0.455 | 0.433 | 0.412 | 0.446 | 0.601 | 0.614 | 0.673 | 0.669 | 0.408 | 0.453 | 0.498 | 0.414 | 0.619 |
| HCC-366 | 0.32 | 0.417 | 0.428 | 0.273 | 0.239 | 0.336 | 0.414 | 0.379 | 0.81 | 0.602 | 0.587 | 0.622 | 0.515 | 0.954 | 1.07 | 1.02 | 0.973 | 1.09 |
